Measurements as given in patent publication US5256395A, “Affinity enhancement immunological reagents for in vivo detection and killing of specific target cells” (Immunotech Partners, priority 1986, dated 1993).
Side chains are listed from the residue outwards. Peptide text beside a SMILES is read from it. * marks the point of attachment. Dnp = O=[N+]([O-])c1ccc(*)c([N+](=O)[O-])c1; Ahx = NCCCCCC(=O)O

Assays:
[1] = test system: anti-CD5-anti-DNP dual specificity conjugate (compound 1) with Namalwa cells (human B lymphoma line); assay: Binding of radioiodinated probe to target cells in the presence of excess dual specificity conjugate; conditions: Namalwa cells (no CD5), compound 1 at 0.5 μg/ml present, 3 h
Protocol: (§1) In an Eppendorf plastic tube are incubated 100 μl of a cell suspension at 3.10^7 cells/ml of a human T-cell line (HPBALL) or of a human B lymphoma line (Namalwa) in phosphate buffered saline supplemented with 0.1% bovine serum albumin, 0.02% azide and 50 mM deoxyglucose, 100 μl of a solution of dual specificity conjugate, anti-CD5 (compound 1) or anti-CALLA (compound 2), at 0.5 μg/ml in the same buffer and 150 μl of radioiodinated compound 6 or compound 7. After 3 h at 4° C. or 37° C. with agitation, 100 μl of the resulting cell suspension are transferred into triplicate 0.4 ml plastic tubes containing 200 μl of a 1.2:1 mixture of dibutyl-phthalate and ethyl-hexyl-phthalate. After 30 sec centrifugation at 10,000 g, 50 μl of the supernatant are collected and counted, and the bottom of the tube, containing the cell pellet, is cut and counted. Results are then expressed as bound/free percentages.
(§2) The experimental settings allow cross-controlled experiments, since HPBALL cells express the T-cell marker CD5, but not the tumor-associated antigen CALLA, whereas Namalwa cells express CALLA, but not CD5.

[2] = test system: anti-CALLA-anti-DNP dual specificity conjugate (compound 2) on Namalwa cells (human B lymphoma line); assay: as above; conditions: for Bound/free (%): compound 2 at 0.5 μg/ml present, 3 h; for Bound/free (%), SB = Specific Binding: excess conjugate present
Protocol: as §1, §2

[3] = test system: anti-CD5-anti-DNP dual specificity conjugate (compound 1; F(ab')2 clone BL1a coupled to anti-DNP Fab' clone U7-27) on HPBALL cells (human T-cell line); assay: as above; conditions: for Bound/free (%): compound 1 at 0.5 μg/ml present, 3 h; for Bound/free (%), SB = Specific Binding: excess conjugate present
Protocol: as §1, §2

[4] = test system: anti-CALLA-anti-DNP dual specificity conjugate (compound 2; F(ab')2 clone ALB1 coupled to anti-DNP Fab' clone U7-27) with HPBALL cells (human T-cell line); assay: as above; conditions: HPBALL cells (no CALLA), compound 2 at 0.5 μg/ml present, 3 h
Protocol: as §1, §2

[5] = test system: anti-CD5-anti-DNP dual specificity conjugate (compound 1) on HPBALL cells (human T-cell line); assay: Binding of radioiodinated probe to target cells after washing the excess dual specificity conjugate; conditions: 37° C.; for Bound/free (%): compound 1 1 h then washed 3 times, tracer 2 h; for Bound/free (%), SB = Specific Binding: excess conjugate washed
Protocol: as §1
(§3) The experimental conditions are similar to that described above but the dual specificity conjugate is incubated first for 1 h, then the cells are washed 3 times and the tracer is added. The cells are then pelleted after another 2 h incubation. Results.

[6] = test system: anti-CALLA-anti-DNP dual specificity conjugate (compound 2) with HPBALL cells (human T-cell line); assay: as above; conditions: HPBALL cells (no CALLA), compound 2 1 h then washed 3 times, tracer 2 h, 37° C.
Protocol: as §1, §3

[7] = test system: anti-CD5-anti-DNP dual specificity conjugate (compound 1) with Namalwa cells (human B lymphoma line); assay: as above; conditions: Namalwa cells (no CD5), compound 1 1 h then washed 3 times, tracer 2 h
Protocol: as §1, §3

[8] = test system: anti-CALLA-anti-DNP dual specificity conjugate (compound 2) on Namalwa cells (human B lymphoma line); assay: as above; conditions: for Bound/free (%): compound 2 1 h then washed 3 times, tracer 2 h; for Bound/free (%), SB = Specific Binding: excess conjugate washed
Protocol: as §1, §3

[9] = test system: anti-Lyb8.2-anti-DNP conjugate (compound 3) on BALB/c mouse spleen cells; assay: Binding of 111In-labeled probe to mouse spleen cells in the presence of conjugate; conditions: 111In-labeled tracer, BALB/c spleen cells 10^7 cells/ml, 37° C., 2 h, compound 3 at 3.10^-9 M
Protocol: as §1
Compound 4, and the monomeric analogue, compound 5, (0.2 nmol) have been labeled with 0.2 mCi of ^111 In chloride by incubation at room temperature in 0.1M citrate buffer for 30 min. […] After incubation of freshly isolated BALB/c mouse spleen cells (10^7 cells/ml) at 37° C. for 2 h in the presence of anti-Lyb8.2-anti-DNPconjugate (compound 3) at 3.10^-9 M, binding of the labeled compounds 4 and 5 was monitored as described in example 4. […]

Question: O=C(O)CNC(=O)[C@H](Cc1ccc(O)cc1)NC(=O)CCCCCNc1ccc([N+](=O)[O-])cc1[N+](=O)[O-] [compound 7, N-α-(2,4-dinitrophenyl-aminocaproyl)-L-tyrosyl-gylicine] was tested. Which “Bound/free (%)” value ([1]; 4° C.) did it give?
Answer: 2%

Question: And the “Bound/free (%)” value ([1]; 37° C.)?
Answer: 1%

Question: What about the “Bound/free (%)” value ([2]; 4° C.) of the same compound?
Answer: 6%

Question: And the “Bound/free (%)” value ([2]; 37° C.)?
Answer: 5%

Question: What about the “Bound/free (%), SB = Specific Binding” value ([2]; 4° C.) of the same compound?
Answer: 4%

Question: What about the “Bound/free (%), SB = Specific Binding” value ([2]; 37° C.) of the same compound?
Answer: 4%

Question: And the “Bound/free (%)” value ([3]; 4° C.)?
Answer: 38%

Question: What about the “Bound/free (%)” value ([3]; 37° C.) of the same compound?
Answer: 12%

Question: And the “Bound/free (%), SB = Specific Binding” value ([3]; 4° C.)?
Answer: 35%

Question: And the “Bound/free (%), SB = Specific Binding” value ([3]; 37° C.)?
Answer: 9%

Question: What about the “Bound/free (%)” value ([4]; 4° C.) of the same compound?
Answer: 3%

Question: And the “Bound/free (%)” value ([4]; 37° C.)?
Answer: 3%

Question: What about the “Bound/free (%)” value [5] of the same compound?
Answer: 11%

Question: And the “Bound/free (%), SB = Specific Binding” value [5]?
Answer: 7%

Question: What about the “Bound/free (%)” value [6] of the same compound?
Answer: 3%

Question: What about the “Bound/free (%)” value ([7]; 4° C.) of the same compound?
Answer: 8%

Question: And the “Bound/free (%)” value ([7]; 37° C.)?
Answer: 2%

Question: And the “Bound/free (%)” value ([8]; 4° C.)?
Answer: 50%

Question: What about the “Bound/free (%)” value ([8]; 37° C.) of the same compound?
Answer: 4%

Question: What about the “Bound/free (%), SB = Specific Binding” value ([8]; 4° C.) of the same compound?
Answer: 42%

Question: What about the “Bound/free (%), SB = Specific Binding” value ([8]; 37° C.) of the same compound?
Answer: 2%

Question: Which bound/free [9] does the source give for O=C(O)CN(CCN(CC(=O)O)CC(=O)N[C@@H](CCCCNc1ccc([N+](=O)[O-])cc1[N+](=O)[O-])C(=O)O)CCN(CC(=O)O)CC(=O)N[C@@H](CCCCNc1ccc([N+](=O)[O-])cc1[N+](=O)[O-])C(=O)O [compound 4, bis-(N-ε-(2,4-dinitrophenyl)-L-Lysyl)diethylenetriamine-pentaacetic acid] here?
Answer: 26%

Question: How did the “Bound/free (%)” value ([1]; 4° C.) turn out when O=C(CCCCCNc1ccc([N+](=O)[O-])cc1[N+](=O)[O-])NCCCC[C@H](NC(=O)[C@H](Cc1ccc(O)cc1)NC(=O)CCCCCNc1ccc([N+](=O)[O-])cc1[N+](=O)[O-])C(=O)O [compound 6, N-α-(2,4-dinitrophenyl-aminocaproyl)-L-tyrosyl-N-ε-(2,4-dinitrophenyl-aminocaproyl)-L-lysine] ({Dnp-Ahx}-Tyr-Lys([Ahx-Dnp])-OH) was run?
Answer: 2%

Question: What about the “Bound/free (%)” value ([1]; 37° C.) of the same compound?
Answer: 4%

Question: What about the “Bound/free (%)” value ([2]; 4° C.) of the same compound?
Answer: 23%

Question: What about the “Bound/free (%)” value ([2]; 37° C.) of the same compound?
Answer: 21%

Question: And the “Bound/free (%), SB = Specific Binding” value ([2]; 4° C.)?
Answer: 21%

Question: And the “Bound/free (%), SB = Specific Binding” value ([2]; 37° C.)?
Answer: 17%

Question: And the “Bound/free (%)” value ([3]; 4° C.)?
Answer: 72%

Question: What about the “Bound/free (%)” value ([3]; 37° C.) of the same compound?
Answer: 67%

Question: What about the “Bound/free (%), SB = Specific Binding” value ([3]; 4° C.) of the same compound?
Answer: 56%

Question: And the “Bound/free (%), SB = Specific Binding” value ([3]; 37° C.)?
Answer: 52%

Question: And the “Bound/free (%)” value ([4]; 4° C.)?
Answer: 16%

Question: What about the “Bound/free (%)” value ([4]; 37° C.) of the same compound?
Answer: 15%

Question: What about the “Bound/free (%)” value [5] of the same compound?
Answer: 45%

Question: What about the “Bound/free (%), SB = Specific Binding” value [5] of the same compound?
Answer: 36%

Question: And the “Bound/free (%)” value [6]?
Answer: 9%

Question: What about the “Bound/free (%)” value ([7]; 4° C.) of the same compound?
Answer: 15%

Question: What about the “Bound/free (%)” value ([7]; 37° C.) of the same compound?
Answer: 4%

Question: And the “Bound/free (%)” value ([8]; 4° C.)?
Answer: 145%

Question: And the “Bound/free (%)” value ([8]; 37° C.)?
Answer: 11%

Question: What about the “Bound/free (%), SB = Specific Binding” value ([8]; 4° C.) of the same compound?
Answer: 130%

Question: What about the “Bound/free (%), SB = Specific Binding” value ([8]; 37° C.) of the same compound?
Answer: 7%

Question: O=C(O)CN(CCN(CC(=O)O)CC(=O)O)CCN(CC(=O)O)CC(=O)N[C@@H](CCCCNc1ccc([N+](=O)[O-])cc1[N+](=O)[O-])C(=O)O [compound 5, (N-ε-(2,4-dinitrophenyl)-L-Lysyl)-diethylenetriamine-pentaacetic acid] was tested. Which bound/free [9] did it give?
Answer: 6%
